The format of data set [1] is in vivo, human. The procedure:
FIG. 2 depicts a graph showing leucine, lysine, and phenylalanine oxidation in human subjects at rest and during prolonged aerobic exercise (approximately 30% VO2 max for 105 minutes). Error bars represent standard error of mean (SE) assessed via ANOVA.
EXAMPLE 2. […] 1982, 52(2):458-66 and Wolfe et al., J APPL PHYSIOL RESPIR ENVIRON EXERC PHYSIOL. 1984, 56(1):221-9, both the disclosures of which are herein incorporated by reference in their entirety. Total leucine oxidation increased from 0.38±0.05 to 1.41±0.14 μmol·kg^−1·min^−1 during exercise due to increases in the oxidation of plasma leucine (150%) and intracellular leucine (600%) (FIG. 2). […] These findings provided a rational for providing extra leucine, as well as other branched chain amino acids, before exercise.

In data set [2] the test system is nitric oxide (NO) synthesis. In words: In vivo kinetics of nitric oxide (NO) metabolism after citrulline ingestion (stable isotope tracer). The arrangement: species or system human. As to conditions: 3 grams; for NO synthesis rate after citrulline ingestion: after 3 hours; for De novo arginine synthesis after citrulline ingestion: over 3 hours. How it is done: FIGS. 6A-B depicts graphs showing plasma arginine concentration (FIG. 6A) and nitric oxide (NO) synthesis (FIG. 6B) in human subjects over 3 hours following citrulline ingestion (3 grams) wherein the subjects were either elderly (n=8, 77±9 years of age, 93±4 kg) or young individuals (n=8, 27±9 years of age, 70±5 kg).
EXAMPLE 5. A kinetic study with a stable isotope tracer method was performed to determine in vivo kinetics of nitric oxide (NO) metabolism in relation to citrulline ingestion in older adult humans (n=8, 77±9 years, 93±4 kg) and in young adult humans (n=8, 27±9 years, 70±5 kg). In the fasted state, NO synthesis (expressed per kg fat free mass) was ˜50% lower in older vs. young adults and was related to a decreased rate of appearance of the NO precursor arginine. Citrulline ingestion (3 grams) stimulated de novo arginine synthesis in both older (6.88±0.83 to 35.40±4.90 μmol·kg body wt^−1·h^−1) and, to a greater extent, in young adults (12.02±1.01 to 66.26±4.79 μmol·kg body wt^−1 h^−1) over 3 hours (FIG. 6A). NO synthesis rate increased correspondingly in older (0.17±0.01 to 2.12±0.36 μmol·kg body wt^−1·h^−1) and, to a greater extent, in young adults (0.36±0.04 to 3.57±0.47 μmol·kg body wt^−1·h^−1) after 3 hours (FIG. 6B). […] Because arginine can play a role in stimulating muscle protein synthesis as well as increasing blood flow via NO synthesis, the data strongly support citrulline ingestion for acute as well as long-term promotion of muscle function.

Like-named read-outs stand apart in the source and are kept apart here.

On to `NCCCC[C@H](N)C(=O)O` [lysine], for which the “Oxidation, change from rest to exercise” value in data set [1] (in vivo) is “did not change significantly”.
In the case of `NC(=O)NCCC[C@H](N)C(=O)O` [Citrulline, citrulline], the “NO synthesis rate after citrulline ingestion” value in data set [2] (older adults, basal 0.17±0.01) is 2.12±0.36 μmol·kg body wt^−1·h^−1; in data set [2] (young adults, basal 0.36±0.04), 3.57±0.47 μmol·kg body wt^−1·h^−1. Moreover, the “De novo arginine synthesis after citrulline ingestion” value in data set [2] (older adults, basal 6.88±0.83) is on record as 35.40±4.90 μmol·kg body wt^−1·h^−1; in data set [2] (young adults, basal 12.02±1.01) it was 66.26±4.79 μmol·kg body wt^−1 h^−1.
In data set [1] (human, in vivo), `CC(C)C[C@H](N)C(=O)O` [leucine] yielded a Total leucine oxidation of 0.38 ± 0.05 µmol/kg/min. Besides, in data set [1] (human, in vivo, 105 min), the “Increase in the oxidation of intracellular leucine” value was 600%, the “Increase in the oxidation of plasma leucine” value was found to be 150% and the Total leucine oxidation was 1.41 ± 0.14 µmol/kg/min. Besides, in data set [1] (not told), the Plasma leucine flux entry is “decreased slightly, but not significantly”.
Take `N[C@@H](Cc1ccccc1)C(=O)O` [phenylalanine]: in data set [1] (in vivo), the “Oxidation, change from rest to exercise” value is given as “did not change significantly”.

(Values after patent US11412771B2, “Composition to improve athletic performance by supporting muscle protein synthesis and mental focus” (The Amino Company LLC, priority 2019, dated 2022).)
